What was measured:
[1] = test system: Hepa1-6 cells; experiment: MTT antiproliferative assay, Hepa1-6; assay type: cell-based; settings: Mus musculus, Hepa1-6; 72 h MTT assay, Mean ± SD
Procedure: (§1) All cells were incubated at 37 °C by DMEM complete medium (containing 1% penicillin−streptomycin and 12% FBS) in 5% CO2 incubator. 2–5 × 10^3 cells were cultured in 96‐well plates and each well contained 100 µL complete medium. OXA was dissolved in water, and all other complexes were dissolved in DMF. After cells adhered in the wells, different concentrations of complexes were diluted in 100 µL complete medium and added in the wells. The final volume in the each well was 200 µL and the content of DMF was maximum 0.5%. After 72 h incubation, the antiproliferative activity was tested by MTT assay.

[2] = test system: HepG2 cells; experiment: MTT antiproliferative assay, HepG2; assay type: cell-based, human; settings: 72 h MTT assay, Mean ± SD
Procedure: as §1

[3] = test system: 293T cells; experiment: MTT assay, normal kidney cell line 293T; assay type: cell-based; settings: Homo sapiens, HEK-293T; 72 h MTT assay, Mean ± SD
Procedure: as §1

[4] = Stability analysis by 1H NMR; assay type: physicochemical
Procedure: 5 mM of complex 6d was incubated with DMSO‐d6 or the mixed solution (DMSO‐d6 /D2O = 9:1) or the same mixed solution with 5 mM of GSH for different times (0 – 72 h), and the ^1H NMR spectra were acquired. The stability of AF was determined by the same method.

[5] = test system: phosphorylated Akt; experiment: Western blot of phosphorylated Akt in HepG2; assay type: cell-based, human; settings: HepG2, 24 h; GLA at 8 µM
Procedure: (§2) HepG2 cells were incubated in 6 cm culture dishes and treated with different complexes. The treated cells were lysed with lysis buffer (RIPA:PMSF:phosphatase inhibitor:protease inhibitor = 100:1:1:1). The lysed cells were further broken by sonication, and proteins were isolated by centrifugation. The protein concentrations were detected by BCA assay. 10% SDS PAGE gel was usually applied to separate the different kDa of proteins, and more than 200 kDa of proteins were separated using 8% SDS PAGE gel. After seperation, proteins were transferred onto polyvinylidene difluoride (PVDF) membranes. The target proteins were labeled by various specific primary antibodies at 4 °C overnight. Then, the membranes were treated with anti‐rabbit or anti‐mouse secondary antibody for 2 h. Tris buffered saline with tween 20 (TBST) was applied to wash the membranes after each operation above. The target proteins’ bands were detected by the enhanced chemiluminescence (ECL) procedure.

[6] = test system: HIF-1α; experiment: Western blot of HIF-1α in HepG2; assay type: cell-based, human; settings: HepG2, 24 h
Procedure: as §2

[7] = test system: MAPK pathway (phosphorylated MEK1/2 and ERK1/2); experiment: Western blot of MAPK pathway in HepG2; assay type: cell-based, human; settings: HepG2, 24 h
Procedure: as §2

[8] = test system: PD-L1; experiment: PD-L1 expression in HepG2 (western blot, immunofluorescence, flow cytometry); assay type: cell-based, human; settings: HepG2, 24 h
Procedure: as §2
5 × 10^4 HepG2 cells were treated with complexes in 24‐well plates for 24 h. Subsequently, cells were fixed with 4% paraformaldehyde. Various specific antibodies were added for incubation at 4 °C overnight after cells were permeabilized with Triton X‐100 (except for membrane proteins) and blocked with BSA. Then, the cells were incubated with fluorescently‐labeled secondary antibodies in darkness for 2 h. After that, DAPI was added to stain nuclear in darkness. PBS was applied for washing after each operation above (Tris buffered saline (TBS) was applied for washing if phosphorylated protein was analyzed). The cell images were captured by the fluorescence microscopy.
4 × 10^5 HepG2 cells were incubated in 6‐well plates, and complexes were added in the wells. The cells were collected after incubation, and the treated cells were labeled with probes or fluorescently‐labeled antibodies. A flow cytometer was applied to analyze the labeled cells.

[9] = test system: immune cells in Hepa1-6 tumor and spleen tissue; experiment: In vivo immune cell and marker analysis (flow cytometry, immunofluorescence, immunohistochemistry); set-up: species or system C57BL/6 mice; settings: for DC maturation in spleen and tumor tissues / macrophage polarization in tumor: flow cytometry and immunofluorescence; for T lymphocyte infiltration in tumor: flow cytometry and immunohistochemistry; for MDSC infiltration in tumor / Treg infiltration in tumor (Foxp3): vs model group, 13 days
[10] = set-up: method as in PMID 30146723; settings: antitumor activity; cited from earlier work
[11] = test system: MAPK pathway (phosphorylated MEK1/2 and ERK1/2); experiment: In vivo MAPK pathway in tumor tissue; set-up: species or system C57BL/6 mice; settings: western blot, day 13
[12] = In vivo tolerability (body weight, survival, organ H&E)
Procedure: All mice were 6–8 weeks old males and procured from Hangzhou Medical College, located in Hangzhou, China. […] 2 × 10^6 Hepa1‐6 cells in 100 µL DMEM were subcutaneously seeded in underarms of C57BL/6 mice. […] Meanwhile, the mice weights and tumor volume were recorded, and the calculation formula of tumor volume was Volume = Width^2 × Length/2. After 13 days, all mice were sacrificed for collection of tumors, hearts, livers, spleens, lungs and kidneys. Collagenase IV (1 mg mL^−1) and DNase I (1 µg mL^−1) were applied to digest a part of the tumor tissue into cell suspension, and lysis buffer was used to remove red blood cells. The prepared cells above were stained with antibodies (anti‐CD3e‐FITC, and anti‐CD8a‐PE; anti‐CD11c‐APC, anti‐CD80‐PE, and anti‐CD86‐FITC; anti‐CD45‐Percp, anti‐CD11b‐APC, and anti‐Ly‐6G/Ly‐6C(Gr‐1)‐FITC; anti‐CD11b‐APC, anti‐CD206‐PE, and CD86‐FITC). CD3^+CD8^+ T cells, CD80^+CD86^+ DCs, CD11b^+Gr‐1^+ MDSCs, CD206^−CD86^+ M1‐type macrophages and CD206^+CD86^− M2‐type macrophages were analyzed by flow cytometry. Then, another part of tumor tissues were fixed with 4% paraformaldehyde, embedded in paraffin, cut into slices and stained with antibodies for immunofluorescence and immunohistochemistry analysis. H&E stain assays were applied for all tissue samples.

[13] = test system: Hepa1-6 tumors; experiment: In vivo antitumor assay, Hepa1-6 tumors; set-up: species or system C57BL/6 mice; settings: after 13 days; 6d and OXA 5 mg kg^−1, GLA 10 mg kg^−1, i.p. every two days
[14] = test system: PD-L1; experiment: In vivo PD-L1 expression in tumor tissue; set-up: species or system C57BL/6 mice; settings: western blot, 13 days of treatment
[15] = Metabolic stability in whole blood; settings: mouse

Row | SMILES | IC50 [1] [µM] | IC50 ([2]; Homo sapiens, HepG2) [µM] | IC50 [3] [µM] | Akt phosphorylation (western blot) [5] | IC50 [2] [µM] | PD-L1 expression (western blot) [8] | DC maturation in spleen and tumor tissues [9] | macrophage polarization in tumor [9] | T lymphocyte infiltration in tumor [9] | Arg-1 expression in tumor tissue ([9]; immunofluorescence) | CRT exposure in tumor tissue ([9]; immunofluorescence) | MDSC infiltration in tumor [9] | Treg infiltration in tumor (Foxp3) [9] | MAPK pathway activation (phosphorylation of MEK1/2 and ERK1/2) in tumor tissue [11] | tumor growth vs model group [13] | other results
1 | CC1(C)C=Cc2c(ccc3c2OC[C@@H](c2ccc(OCCCCCBr)cc2OCCCCCBr)C3)O1 [3b] | > 20 | > 20 | > 20 | – | – | – | – | – | – | – | – | – | – | – | – | –
2 | CC(=O)OC[C@H]1O[C@@H]([S-])[C@H](OC(C)=O)[C@@H](OC(C)=O)[C@@H]1OC(C)=O.CCP(CC)CC.[Au+] [AF, auranofin, reference compound] | – | – | – | inhibited Akt phosphorylation | 3.54 ± 0.34 | upregulation | – | – | – | – | – | – | – | – | – | stability by 1H NMR [4]: remained stable; time after which 1H NMR spectra began to change / showed new peaks ([4]; 5 mM complex, DMSO-d6/D2O 9:1 containing GSH (5 mM)): 2 h; HIF-1α expression (western blot) [6]: promoted; ERK1/2 phosphorylation (western blot, Figure S49) [7]: significantly enhancing ERK1/2 phosphorylation
3 | CC1(C)C=Cc2c(ccc3c2OC[C@@H](c2ccc(O)cc2O)C3)O1 [GLA, glabridin] | 37.6 ± 1.73 | 39.5 ± 4.68 | 43.4 ± 4.47 | did not significantly affect Akt phosphorylation | – | did not exhibit this effect | induced DC maturation | significantly promoted M1‐type macrophage polarization | did not enhance T lymphocyte infiltration | downregulation | did not induce CRT exposure | reducing the infiltration | reducing the infiltration | significantly inhibited | did not show an obvious effect on tumor growth | suggested minimum effective dose [10]: 10 mg/kg; effect on mice body weight ([12]; 6d and OXA 5 mg kg^−1, GLA 10 mg kg^−1, i.p. every two days, OXA after nine days): no significant effect; organ tissue damage (H&E staining) ([12]; heart, liver, spleen, lung, kidney, day 13): did not cause noticeable damage to organ tissues
4 | O=C1[O][Pt]2([NH][C@@H]3CCCC[C@H]3[NH]2)[O]C1=O [OXA, oxaliplatin] | – | – | – | – | 4.08 ± 0.97 | did not affect | induced DC maturation | promoted M2‐type polarization | promoted T lymphocyte infiltration | promoted the expression | promoted CRT exposure | higher level of MDSC infiltration | higher number of infiltrated Tregs | promoted the phosphorylation | significant tumor growth inhibition | PD-L1 expression in tumor tissue [14]: upregulated; GzmB expression in tumor tissue ([9]; immunofluorescence, OXA vs model group, 6d vs OXA group): did not increase obviously; phosphorylation of MEK1/2 and ERK1/2 (western blot) [7]: no effect
5 | CC(C)[N+](C)(CCOC(=O)C1c2ccccc2Oc2ccccc21)C(C)C [Propantheline bromide] | – | – | – | – | – | – | – | – | – | – | – | – | – | – | – | -k [15]: 0.0216; half-life [15]: 32.1 min; remaining at 0 h [15]: 100%; remaining at 5 min [15]: 88.5%; remaining at 0.25 h [15]: 66%; remaining at 0.5 h [15]: 47.5%; remaining at 1 h [15]: 21.8%; remaining at 2 h [15]: 7.63%

Reference: publication PMC12591170, “Glabridin‐Gold(I) Complex as a Novel Immunomodulatory Agent Targeting TrxR and MAPK Pathways for Synergistic Enhancement of Antitumor Immunity” (Advanced Science, 2025)
